{"source": "ChEMBL document CHEMBL1136964", "about": "“Nicotinic agonist binding site mapped by methionine- and tyrosine-scanning coupled with azidochloropyridinyl photoaffinity labeling” (J Med Chem, 2009)", "type_in_all_cases": "cell-based", "key": {"HEK293S [1]": {"system": "HEK293S", "assay": "Binding affinity to Aplysia californica AchBP V108M mutant expressed in HEK293S cells assessed as specific photoincorporation at 46 pmol by scintillation counting relative to wild type"}, "[2]": {"assay": "Binding affinity to Aplysia californica AchBP I118M mutant expressed in HEK293S cells by scintillation proximity assay"}, "HEK293S [3]": {"system": "HEK293S", "assay": "Binding affinity to Aplysia californica AchBP V108M, M116L mutant expressed in HEK293S cells assessed as specific photoincorporation at 46 pmol by scintillation counting relative to wild type"}, "HEK293S [4]": {"system": "HEK293S", "assay": "Binding affinity to wild type Aplysia californica AchBP expressed in HEK293S cells assessed as specific photoincorporation at 46 pmol by scintillation counting"}, "[5]": {"assay": "Binding affinity to Aplysia californica AchBP M116Y mutant expressed in HEK293S cells by scintillation proximity assay"}, "HEK293S [6]": {"system": "HEK293S", "assay": "Binding affinity to Aplysia californica AchBP V108M, M116L, Y195F mutant expressed in HEK293S cells assessed as specific photoincorporation at 46 pmol by scintillation counting"}, "[7]": {"assay": "Binding affinity to wild type Aplysia californica AchBP expressed in HEK293S cells by scintillation proximity assay"}, "HEK293S [8]": {"system": "HEK293S", "assay": "Binding affinity to Aplysia californica AchBP M116L mutant expressed in HEK293S cells assessed as specific photoincorporation at 46 pmol by scintillation counting relative to wild type"}, "HEK293S [9]": {"system": "HEK293S", "assay": "Binding affinity to Aplysia californica AchBP I118M, M116L, Y195F mutant expressed in HEK293S cells assessed as specific photoincorporation at 46 pmol by scintillation counting relative to wild type"}, "[10]": {"assay": "Binding affinity to Aplysia californica AchBP I118M, M116L mutant expressed in HEK293S cells by scintillation proximity assay"}, "[11]": {"assay": "Binding affinity to Aplysia californica AchBP S114M, M116L mutant expressed in HEK293S cells by scintillation proximity assay"}, "HEK293S [12]": {"system": "HEK293S", "assay": "Binding affinity to Aplysia californica AchBP I118M, M116L mutant expressed in HEK293S cells assessed as specific photoincorporation at 46 pmol by scintillation counting"}, "[13]": {"assay": "Binding affinity to Aplysia californica AchBP Y195F mutant expressed in HEK293S cells by scintillation proximity assay"}, "HEK293S [14]": {"system": "HEK293S", "assay": "Binding affinity to Aplysia californica AchBP M116Y mutant expressed in HEK293S cells assessed as specific photoincorporation at 46 pmol by scintillation counting"}, "HEK293S [15]": {"system": "HEK293S", "assay": "Binding affinity to Aplysia californica AchBP Y195F mutant expressed in HEK293S cells assessed as specific photoincorporation at 46 pmol by scintillation counting relative to wild type"}, "HEK293S [16]": {"system": "HEK293S", "assay": "Binding affinity to Aplysia californica AchBP M116Y, Y195F mutant expressed in HEK293S cells assessed as specific photoincorporation at 46 pmol by scintillation counting"}, "[17]": {"assay": "Binding affinity to Aplysia californica AchBP I106M, M116L mutant expressed in HEK293S cells by scintillation proximity assay"}, "[18]": {"assay": "Binding affinity to Aplysia californica AchBP S114M mutant expressed in HEK293S cells by scintillation proximity assay"}}, "data": [{"compound": "Clc1ccc(C2CC3CCC2N3)cn1", "note": "(racemic) [EPIBATIDINE]", "values": [{"measurement": "Activity", "setting": "HEK293S [1]", "result": 33, "unit": "%"}, {"measurement": "Kd", "setting": "[2]", "result": 0.01, "unit": "µM"}, {"measurement": "Activity", "setting": "HEK293S [3]", "result": 28, "unit": "%"}, {"measurement": "Activity", "setting": "HEK293S [4]", "result": 29, "unit": "%"}, {"measurement": "Kd", "setting": "[5]", "result": 0.057, "unit": "µM"}, {"measurement": "Activity", "setting": "HEK293S [6]", "result": 0, "unit": "%"}, {"measurement": "Kd", "setting": "[7]", "result": 0.0086, "unit": "µM"}, {"measurement": "Activity", "setting": "HEK293S [8]", "result": 121, "unit": "%"}, {"measurement": "Activity", "setting": "HEK293S [9]", "result": 16, "unit": "%"}, {"measurement": "Kd", "setting": "[10]", "result": 0.005, "unit": "µM"}, {"measurement": "Kd", "setting": "[11]", "result": 0.012, "unit": "µM"}, {"measurement": "Activity", "setting": "HEK293S [12]", "result": 16, "unit": "%"}, {"measurement": "Kd", "setting": "[13]", "result": 0.021, "unit": "µM"}, {"measurement": "Activity", "setting": "HEK293S [14]", "result": 17, "unit": "%"}, {"measurement": "Activity", "setting": "HEK293S [15]", "result": 3.4, "unit": "%"}, {"measurement": "Activity", "setting": "HEK293S [16]", "result": 8.7, "unit": "%"}, {"measurement": "Kd", "setting": "[17]", "result": 0.012, "unit": "µM"}, {"measurement": "Kd", "setting": "[18]", "result": 0.016, "unit": "µM"}]}]}
